Experimental data as given in patent US12251449B2, “Synthetic multidomain peptide biomaterials that inhibit inducible nitric oxide synthase” (William Marsh Rice University, priority 2019, dated 2025).
“Also recorded” adds a separate entry of the source.

What was measured:
MOC1 tumors = assay: MOC orthotopic murine model of oral cancer (Example 9); conditions: established 4-5 mm MOC1 tumors
Procedure: MOC orthotopic murine model of oral cancer. MOC1 tumors were established by injecting 2×10^6 cells (70%:30% cells: Matrigel®Matrix) into the maxillary vestibule of the left oral cavity in C57BL/6J mice. […] Tumor growth was monitored by tumor size measurements (in diameter) taken at least two times per week using digital calipers to measure the longest dimension (single dimension). Data was then analyzed for Kaplan-Meier survival and tumor growth curves. […] Excessive tumor burden, defined as tumor diameter reaching 12 mm, tumor ulceration, or a weight loss of greater than 20% were factors that were considered for all endpoints in tumor growth and survival data.
Statistical methods. Statistical analyses were performed using Prism 7.0 (GraphPad, San Diego, CA). Statistical analyses for Kaplan-Meier survival curves were performed using the Log-rank/Mantel-Cox test. Statistical significance for tumor growth curves was determined by a two-way ANOVA test followed by selected comparison using Tukey's multiple comparison tests with multiple comparison correction. All p values were two-sided and p values less than 0.05 were considered significant.

iNOS [1] = target: T1, iNOS (Mus musculus, UniProt P29477); assay: iNOS knockdown in vitro Greiss assay; type: cell-based; conditions: for iNOS inhibition (in words): stimulated RAW macrophages cultured on the hydrogel
T1 construct: endogenous in cells; host or cells: RAW 264.7 murine macrophages stimulated with LPS and IFN-gamma
T1 sequence (P29477 1-1144): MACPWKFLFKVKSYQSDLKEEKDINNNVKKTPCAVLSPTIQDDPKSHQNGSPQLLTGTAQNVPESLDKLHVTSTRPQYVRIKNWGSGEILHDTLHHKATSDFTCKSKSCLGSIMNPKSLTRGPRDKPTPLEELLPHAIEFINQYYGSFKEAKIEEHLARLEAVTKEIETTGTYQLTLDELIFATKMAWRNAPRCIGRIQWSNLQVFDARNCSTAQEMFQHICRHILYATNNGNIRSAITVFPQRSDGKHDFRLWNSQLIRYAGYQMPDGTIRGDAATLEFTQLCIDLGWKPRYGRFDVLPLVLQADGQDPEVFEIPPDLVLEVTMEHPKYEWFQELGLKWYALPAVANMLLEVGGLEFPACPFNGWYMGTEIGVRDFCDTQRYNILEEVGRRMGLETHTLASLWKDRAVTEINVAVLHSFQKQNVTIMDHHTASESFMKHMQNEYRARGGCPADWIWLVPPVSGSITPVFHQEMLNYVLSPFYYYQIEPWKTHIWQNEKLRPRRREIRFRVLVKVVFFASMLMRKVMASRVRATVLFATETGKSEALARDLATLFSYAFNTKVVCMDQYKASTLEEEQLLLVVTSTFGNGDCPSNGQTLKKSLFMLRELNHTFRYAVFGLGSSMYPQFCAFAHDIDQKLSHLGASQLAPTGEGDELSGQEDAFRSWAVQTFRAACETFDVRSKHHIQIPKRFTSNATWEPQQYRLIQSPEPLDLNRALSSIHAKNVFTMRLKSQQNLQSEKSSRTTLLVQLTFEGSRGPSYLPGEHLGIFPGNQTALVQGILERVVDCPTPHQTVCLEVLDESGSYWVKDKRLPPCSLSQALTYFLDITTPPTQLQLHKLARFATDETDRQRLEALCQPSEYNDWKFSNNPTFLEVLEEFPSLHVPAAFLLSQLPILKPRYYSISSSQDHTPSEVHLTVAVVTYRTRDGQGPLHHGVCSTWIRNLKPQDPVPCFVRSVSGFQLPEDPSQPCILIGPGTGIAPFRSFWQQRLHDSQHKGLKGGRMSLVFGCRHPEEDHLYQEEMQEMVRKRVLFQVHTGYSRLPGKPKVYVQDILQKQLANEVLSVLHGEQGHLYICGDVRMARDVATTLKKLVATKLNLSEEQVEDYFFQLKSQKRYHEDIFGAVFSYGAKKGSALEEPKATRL
Procedure: iNOS knockdown in vitro Greiss assay. To evaluate the iNOS knockdown efficacy of various materials, the following procedure was used to test % iNOS inhibition of RAW 264.7 cells stimulated with Lipopolysaccharide (LPS, Thermo Fisher Scientific, Rockford, IL) and recombinant mouse IFN-7 (Biolegend, San Diego, CA). RAW macrophages were prepared at a stock concentration of 2.5×10^6 cells/mL, and plated at 2.5×10^5 cells per well in 24-well plates. For samples testing the efficacy of 2-D surface cell culture, 200 μL of MDP hydrogels was applied to evenly coat the surface of each well before addition of cells. Each experimental condition was performed in triplicate. The following controls were included in every experiment, 1) media alone, 2) stimulated cells alone, and 3) unstimulated cells alone. To each well, stimulation media or normal media was then added based on experimental requirement. Stimulation media was prepared with LPS (final concentration 1 μg/mL) and IFN-7 (final concentration 100 U/mL). For samples testing material efficacy in solution (e.g. free L-NIL), after 6 hrs of incubation at 37° C. with 5% CO2 the desired concentration of inhibitor was added to achieve a range of concentrations between 1 μM and 1 mM.
In all cases after 24 hours from time of stimulation, samples of cell media were collected from each well after mixing media by pipetting before collection. Media samples were placed into a 96-well plate and centrifuged at 5000 rpm for 10 min. Supernatants were removed and placed in a new clear 96-well plate, and samples were immediately analyzed using a colorimetric Greiss Assay (Cayman Chemical, Ann Arbor, MI) to assess nitrite levels (Bryan & Grisham, 2007). Color was allowed to develop for 10 min following addition of Greiss reagents, and absorbance was read at 540 nm on a plate reader. Percent iNOS inhibition for each sample was calculated by first subtracting the absorbance of the media-only baseline, and then converting to a percent of maximum nitrite signal as determined by the internal standard of stimulated cells alone.

RAW 264.7 cells = assay: Live-dead viability of RAW 264.7 cells on MDP hydrogels; type: cell-based, mouse; conditions: RAW macrophages on 1 wt. % hydrogel, one to three days
Procedure: Cell culture. For in vitro experiments, mouse RAW 264.7 cells (ATCC TIB-71) were grown in DMEM media supplemented with 10% Heat-Inactivated Fetal Bovine Serum (HI-FBS), L-glutamine, sodium pyruvate, and 1% penicillin-streptomycin. Cells were cultured at 37° C. with 5% CO2 and subcultured using scraping.
For 2-D culture live-dead viability studies, peptide hydrogels were pipetted into 0.4 cm^2 wells of Lab-Tek 16 well glass chamber slides (Thermo Fischer, Rochester, NY). Gels were pipetted to produce 70 μL pucks with a thickness of 1.75 mm. The gels were carefully pipetted into the bottom of each well and tapped before shear recovery to create flat gel profiles. After pipetting, the samples were allowed to shear recover for 5-10 min before adding 200 μL cell media and 10,000 RAW 264.7 cells. For each experiment time point (days 1 and 3) separate slides with duplicate gels were created. The cell media was changed every 2 days, taking care to not disturb or dislodge the gel material.
At each desired time point the following procedure was used to stain the cells for live-dead analysis. Live-dead staining solution was prepared in DPBS (Thermo Fisher Scientific, Rockford, IL) with 2 μM Calcein AM (Life Technologies), 4 μM Ethidium homodimer (Life Technologies), and 5 μg/mL Hoechst 33342 (BD Biosciences, San Jose, CA). Cell media was removed from the top of the hydrogel samples, which were then washed with PBS. Samples were then stained with 100 μL of prepared solution by incubating at 37° C. with 5% CO2 for 60 min while protected from light. After staining, the gels were removed from the glass chamber slides and placed in PBS before immediately imaging by confocal. Gels were analyzed by z-stack imaging using a Nikon A1 Confocal Microscope with a 40× water objective (405 nm blue channel laser, 488 nm green channel laser, 561 nm red channel laser). Image processing was done using NIS Elements, and Imaris Cell Counting software was used to quantify live-dead percentages.

[2] = reported in Aulisa et al., 2009; cited from earlier work
iNOS [3] = assay: Anti-nitrotyrosine immunostaining of subcutaneously injected hydrogels; type: in vivo, mice; conditions: subcutaneous implants, 3 and 7 days post injection
Procedure: Subcutaneous experiments and histology. C57BL/6J female mice were purchased from The Jackson Laboratory at age 8-12 weeks for subcutaneous characterization experiments. Mice were housed under specific pathogen-free conditions in standard temperature and lighting conditions with free access to food and water, and experiments were conducted with approval of the Institutional Animal Care and Use Committee (IACUC) at Rice University and according to NIH guidelines. Mice were injected with 100 μL MDP hydrogels in each of four separate sites in the subcutaneous space of the dorsal flank after the skin was shaved and sterilized with alcohol. At days 3, 7, 14, and 21 the mice were euthanized and the dorsal skin around the entire implant was removed, fixed overnight in 10% neutral buffered formalin, processed and paraffin embedded, and finally sectioned at […] thickness for staining using standard Masson's trichrome or hematoxylin and eosin (H&E) procedures, as well as immunohistochemical analyses (e.g., anti-nitrotyrosine IHC, or α-SMA blood vessel analysis).
Immunohistochemistry staining was performed on hydrogel implant tissue sections to further study in vivo properties of the L-NIL-MDP compared to related cationic MDPs. Anti-nitrotyrosine immunostaining was used to assess relative levels of nitrosylation of tyrosine within and around the subcutaneously injected hydrogel implants as a marker of iNOS inhibition (FIGS. 7A-H). It is known that the formation of nitric oxide (NO) and other nitrogen oxides in vivo can lead to observable post-translation modifications of peptides and proteins (Ischiropoulos, 2003). For example, surface-exposed 3-nitrotyrosine can be used as a marker of cell or tissue inflammation and damage by reactive nitrogen and oxygen species such as NO (Ahsan, 2013). The higher the local levels of iNOS activity, the greater should be the density of nitrosylated tyrosine. Therefore, visualization of nitrotyrosine levels by targeted antibodies can serve as a general indication of in vivo iNOS activity, or in the case of the L-NIL-MDP, local iNOS inhibition.

[4] = CDN drug release kinetics from hydrogels; type: physicochemical
Procedure: Drug release kinetics. For release kinetics studies of CDN release from various hydrogel formulations, aliquots of CDN-loaded gel (30 μL each) were deposited into 96 well Falcon® flat bottom plates (Becton Dickinson Labware, Franklin Lakes, NJ). 30 μL gel was pipetted to generate a cylindrical puck in each well for each experiment. The pipetted gels were allowed to shear recover for approximately 5-10 min before adding 200 μL of the relevant buffer to the top of the gels (1× HBSS for all MDPs, 1× DPBS for collagen, Matrigel, 1× HBSS with 0.1 M CaCl2) for alginate, etc. according to the gelation requirements of the material). The addition of buffer was defined as t=0 for the beginning of release kinetics experiments. Table 1 summarizes the material conditions and preparation methods used for various comparative CDN delivery kinetics studies.
A Nanodrop 2000C Spectrophotometer (Thermo Scientific) was used to measure drug release by UV absorbance at 259 nm for CDN ML RR-S2 CDA, using an extinction coefficient of 24,000 M^−1cm^−1 (259 nm). Absorbance measurements were obtained by removing […] from the top of the liquid buffers above the loaded gels, over time measuring the increase in absorbance. Over the course of the first 24 hours, release of CDN was measured usually every 1-2 hours and converted to total percent released, with additional measurements also made every 24 hours for up to a week to establish when equilibrium had been reached.

VEGF = assay: Serum VEGF ELISA in mice bearing B16-F0 melanoma tumors; type: in vivo; conditions: 5 days after single 100 μL intratumoral injection
Procedure: Evaluation of in vivo VEGF reduction using murine B16-F0 melanoma tumor model. C57BL/6J male mice were purchased from The Jackson Laboratory. […] All experiments were performed with approval of IACUC at Baylor College of Medicine (BCM) and followed established protocols. B16-F0 melanoma cell line was purchased from American Type Culture Collection (ATCC) and maintained according to manufacturer instructions (DMEM high-glucose with 10% fetal bovine serum and 1% penicillin/streptomycin). C57BL/6J mice were injected subcutaneously (s.c.) with 3×10^5 B16-F0 cells in a single flank. Once tumors became palpable (day 7 post-inoculation) mice were injected intratumorally (i.t.) with either vehicle buffer control Hank's Balanced Salt Solution (HBSS), free L-NIL dissolved in HBSS at 20 mM, K2-MDP hydrogel at 1 wt. % (5.6 mM peptide), or L-NIL-MDP hydrogel at 1 wt. % (5.2 mM peptide, or approximately 20 mM L-NIL functional groups). All injections were done using 100 μL total injection volume.
Mice were euthanized 5 days following i.t. injections and tumor/blood were collected. […] VEGF quantification of undiluted serum was performed using a mouse VEGF Quantikine ELISA kit (R&D Systems, Minneapolis, MN) following manufacturer's instructions. […] Statistical differences were evaluated using Tukey's multiple comparisons test. […]

Compound | iNOS inhibition (in words) (iNOS [1]) | cell attachment, survival and proliferation (in words) (RAW 264.7 cells) | nitrotyrosine staining intensity (in words) (iNOS [3]) | CDN release profile (in words) [4] | also measured
Nc1ncnc2c1ncn2[C@@H]1O[C@@H]2COP(O)(=S)O[C@@H]3C(O)[C@@H](COP(O)(=S)O[C@H]2[C@H]1O)O[C@H]3n1cnc2c(N)ncnc21 (stereo partly shown) [CDN, ML RR-S2 CDA] | – | – | – | – | mice surviving to the 150-day endpoint (MOC1 tumors; single intratumoral injection): 20%
CC(=O)N[C@@H](CCCCN)C(=O)N[C@@H](CCCCN)C(=O)N[C@@H](CO)C(=O)N[C@@H](CC(C)C)C(=O)N[C@@H](CO)C(=O)N[C@@H](CC(C)C)C(=O)N[C@@H](CO)C(=O)N[C@@H](CC(C)C)C(=O)N[C@@H](CO)C(=O)N[C@@H](CC(C)C)C(=O)N[C@@H](CO)C(=O)N[C@@H](CC(C)C)C(=O)N[C@@H](CO)C(=O)N[C@@H](CC(C)C)C(=O)N[C@@H](CCCCN)C(=O)N[C@@H](CCCCN)C(N)=O [K2-MDP, K2(SL)6K2] | moderate | highest degrees of cell attachment and proliferation | moderate | – | free L-NIL concentration giving a comparable level of iNOS inhibition (iNOS [1]; hydrogel surface culture compared with free L-NIL in solution): < 10 µM; iNOS inhibitory activity, fold less than L-NIL-MDP (iNOS [1]; in terms of comparison to free L-NIL concentration): ~10 fold; storage modulus (G′) [2]: 200-500 Pa; median survival (MOC1 tumors; single 30 μl intratumoral injection): 46 days
Ac-EESLSLSLSLSLSLEE-NH2 [E2-MDP, E2(SL)6E2] | little to no iNOS inhibition | poorer cell survival and proliferation rates | – | nearly identical release profiles to each other | –
O5(SL)6O5 [05-MDP] | – | – | – | nearly identical release profiles to each other | –
Ac-RRSLSLSLSLSLSLRR-NH2 [R2-MDP, R2(SL)6R2] | little to no iNOS inhibition; also recorded: lowest iNOS inhibition | highest degrees of cell attachment and proliferation | highest nitrotyrosine staining | – | –
CC(=N)NCCCC[C@H](N)C(=O)O [L-NIL, N6-(1-iminoethyl)-L-lysine, reference compound] | – | – | – | – | reduction of systemic VEGF levels (in words) (VEGF): not achieved
